Source: patent publication US20080160019A1, “SEQUENTIAL COMBINATION THERAPY” (DYAX CORP., priority 2006, published 2008)

Legend:
[1] = system: BxPC3 (human pancreatic cancer cell line) tumor; test: Pancreatic cancer xenograft model, tumor size by calipers (Example 3); type: in vivo, nude mice (nu/nu); settings: for tumor size as compared to control: as single agents; for calculated tumor growth rate, After Avastin / calculated tumor growth rate, Before Avastin (Day 21) / calculated tumor growth rate, Before Avastin (Day 10): DX-2240 or control IgG 20 mg/kg IP Q2d from day 1; for calculated tumor growth rate, Before Avastin (Day 21): before bevacizumab (twenty day pretreatment groups); for calculated tumor growth rate, Before Avastin (Day 10): before bevacizumab start at day 10; for calculated tumor growth rate, After Avastin: unit not given here; for calculated tumor growth rate, Before Avastin (Day 10): unit not given here; for calculated tumor growth rate, Before Avastin (Day 21): unit not given here
Method: The antitumor activity of combinations of DX-2240 and bevacizumab (anti-VEGF antibody) or sorafenib (multi-kinase inhibitor) were tested in a human tumor xenograft model. BxPC3 (human pancreatic cancer cell line) tumor fragments harvested from host nude mice (nu/nu) bearing subcutaneous BxPC-3 tumors were implanted subcutaneously into female nude mice (study animals) and allowed to form tumors. Mice were pair matched by tumor size and randomized into the various treatment groups when the tumors reached approximately 100 mm^3 (about 18 days following tumor implantation). The animals were assorted into the treatment groups shown in Table 1 (“Start” refers to the day on which treatment was begun). DX-2240 was administered by intraperitoneal (IP) injection at 20 mg/kg; bevacizumab was administered by IP injection at 10 mg/kg, sorafenib was administered orally at 60 mg/kg (for a total of 9 doses), and the control IgG (palivizumab, an antibody of the same isotype as DX-2240) was administered by IP injection at 20 mg/kg at the indicated dosing start dates and dosing regimens. An additional positive control group (group 13) was included: these animals were dosed with gemcitabine at 40 mg/kg Q3d for a total of four doses.
Tumor size was evaluated every three to four days using calipers.

[2] = system: BxPC-3 human pancreas cancer model; test: BxPC-3 pancreas cancer model, dosing schedules, mean tumor volume (Example 5); type: in vivo, nude mice (nu/nu); settings: 20 mg/kg IP Q2D x10 from day 1, implanted tumor fragments
Method: Female nude mice (nu/nu) were divided into 14 groups. Animals in groups 1-12 were implanted subcutaneously by trocar with BxPC3 tumor fragments harvested from growing tumors in nude mice hosts. Mice in groups 13-14 were injected subcutaneously with approximately 1×10^7 BxPC-3 cells from tissue culture. When injected tumors grew to approximately 104 mm^3 in size (about 19 days following implantation) and implanted tumors grew to approximately 110 mm^3 in size (about 22 days following implantation) animals were pair-matched by tumor size into treatment and control groups. Animals from groups 1 and 2 were used to evaluate tumor vasculature. Animals from groups 13 and 14 were used to compare effects of DX-2240 on tumors formed from cell injection.
Treatment was initiated after the animals were pair-matched (day 1). Animals in all groups were dosed by weight (10 ml/kg). The control IgG and DX-2240 were administered by IP injection at 20 mg/kg, and bevacizumab and the rat α-mouse VEGF IgG antibody were administered by IP injection at 10 mg/kg once every three days. Dosing was initiated on day −3, 1, 5, 6, 10 or 20.
Individual and group mean tumor volumes were recorded twice weekly from day 1 until day 39.

[3] = system: tumor vasculature; test: Lectin staining of tumors (tumor vasculature, Example 5); type: in vivo, nude mice (nu/nu); settings: for lectin staining, High intensity (3+) / lectin staining, Low intensity (1+) / lectin staining, Medium intensity (2+): 20 mg/kg IP Q2D from day 1, BxPC3 tumors; for lectin staining, High intensity (3+): unit not given here; for lectin staining, Low intensity (1+): unit not given here; for lectin staining, Medium intensity (2+): unit not given here
Method: To determine changes in tumor vasculature, three animals from each of groups 1 and 2 were randomly selected for destructive sample collection, including tumor and serum on days 5, 10, 15, and 20. Animals were injected IV with 150 μL of a biotinylated-lectin solution (no injections on day 5 and 15). Five minutes later, animals were perfused by intracardiac injection with a 1% paraformaldehyde solution in PBS for 3 minutes. Tumors were then collected, placed in the perfusion solution, and sent immediately for analysis. Blood was collected by cardiac puncture and serum extracted, flash frozen in liquid nitrogen, and stored at −80° C.

[4] = system: DU 145 human prostate tumor model; test: DU 145 prostate tumor model, mean tumor volume (Example 6); type: in vivo, nude mice (nu/nu); settings: 20 mg/kg IP Q2D x17 from day 1
Method: Male nude mice (nu/nu) were injected subcutaneously with DU 145 cells harvested from tissue culture (˜1×10^7 cells/mouse). When tumors grew to approximately 95 mm^3 in size (about 7 days following injection), animals were pair-matched by tumor size into treatment and control groups.
Treatment was initiated after the animals were paired-matched (day 1). Animals in control and treatment groups were dosed by weight (10 ml/kg). DX-2240 and the control IgG (palivizumab) were administered by IP injection either once every other day for seventeen treatments beginning day 1 or once every four days for nine treatments beginning day 1. Sorafenib was dosed per os via gavage once daily for nine treatments beginning day 15. To serve as a control, the control IgG was administered every other day for seventeen treatments beginning day 1. Individual and group mean tumor volumes were recorded twice weekly from day 1 until day 57.

[5] = target: Tie1 (Homo sapiens, UniProt P35590); settings: cited from earlier work
[6] = after bevacizumab 10 mg/kg IP Q3d (twenty day pretreatment groups)
[7] = after bevacizumab 10 mg/kg IP Q3d started at day 10
[8] = DX-2240 or control IgG from day 1, bevacizumab (Avastin) after twenty day pretreatment
[9] = DX-2240 or control IgG from day 1, bevacizumab (Avastin) from day 10
[10] = day 1, 20 mg/kg IP Q2d from day 1
[11] = day 3, 20 mg/kg IP Q2d from day 1
[12] = day 7, 20 mg/kg IP Q2d from day 1
[13] = day 10, 20 mg/kg IP Q2d from day 1
[14] = day 14, 20 mg/kg IP Q2d from day 1
[15] = day 21, 20 mg/kg IP Q2d from day 1
[16] = day 24, 20 mg/kg IP Q2d from day 1
[17] = day 28, 20 mg/kg IP Q2d from day 1
[18] = day 31, 20 mg/kg IP Q2d from day 1

Chain of Tie1 (P35590 22-1138): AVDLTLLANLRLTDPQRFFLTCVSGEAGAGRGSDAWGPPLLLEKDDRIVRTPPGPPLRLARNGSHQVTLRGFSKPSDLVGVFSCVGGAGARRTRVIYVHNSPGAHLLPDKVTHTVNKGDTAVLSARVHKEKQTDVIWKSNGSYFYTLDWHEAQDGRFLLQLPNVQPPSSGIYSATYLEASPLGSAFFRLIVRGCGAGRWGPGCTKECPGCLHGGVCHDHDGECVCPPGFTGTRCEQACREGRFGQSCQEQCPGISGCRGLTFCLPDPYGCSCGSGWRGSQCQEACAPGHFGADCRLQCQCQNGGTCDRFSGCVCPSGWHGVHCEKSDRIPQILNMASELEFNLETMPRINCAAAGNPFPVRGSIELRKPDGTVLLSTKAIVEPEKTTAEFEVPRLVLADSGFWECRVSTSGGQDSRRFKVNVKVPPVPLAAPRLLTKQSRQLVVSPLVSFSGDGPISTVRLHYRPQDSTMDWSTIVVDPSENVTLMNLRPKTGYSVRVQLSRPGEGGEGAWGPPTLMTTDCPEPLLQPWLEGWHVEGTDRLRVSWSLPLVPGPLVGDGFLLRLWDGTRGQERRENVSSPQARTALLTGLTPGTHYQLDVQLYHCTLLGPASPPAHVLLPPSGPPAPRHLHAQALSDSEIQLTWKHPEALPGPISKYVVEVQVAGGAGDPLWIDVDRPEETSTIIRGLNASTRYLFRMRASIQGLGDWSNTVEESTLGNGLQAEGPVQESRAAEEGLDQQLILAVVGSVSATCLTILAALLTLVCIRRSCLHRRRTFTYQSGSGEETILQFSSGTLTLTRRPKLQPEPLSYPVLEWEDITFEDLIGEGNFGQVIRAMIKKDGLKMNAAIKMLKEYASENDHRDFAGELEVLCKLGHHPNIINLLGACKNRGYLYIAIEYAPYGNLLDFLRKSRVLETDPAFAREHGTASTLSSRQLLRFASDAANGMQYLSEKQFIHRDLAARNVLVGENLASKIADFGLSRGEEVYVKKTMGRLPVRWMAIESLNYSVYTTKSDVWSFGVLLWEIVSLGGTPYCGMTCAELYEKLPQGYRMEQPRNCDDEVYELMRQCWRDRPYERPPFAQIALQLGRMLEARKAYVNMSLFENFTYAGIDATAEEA

In the case of `Nc1ccn([C@@H]2O[C@H](CO)[C@@H](O)C2(F)F)c(=O)n1` [gemcitabine], the Tumor volume ([1]; day 1, 40 mg/kg Q3d, four doses (positive control group 13)) is reported as 106.5 mm^3, the Tumor volume ([1]; day 3, 40 mg/kg Q3d, four doses (positive control group 13)) is reported as 144.1 mm^3 and the Tumor volume ([1]; day 7, 40 mg/kg Q3d, four doses (positive control group 13)) is reported as 214.9 mm^3. For the same compound, the Tumor volume ([1]; day 10, 40 mg/kg Q3d, four doses (positive control group 13)) was 280.8 mm^3, the Tumor volume ([1]; day 14, 40 mg/kg Q3d, four doses (positive control group 13)) was 347.7 mm^3 and the Tumor volume ([1]; day 21, 40 mg/kg Q3d, four doses (positive control group 13)) was 686.1 mm^3. It also gave a Tumor volume ([1]; day 24, 40 mg/kg Q3d, four doses (positive control group 13)) of 848.1 mm^3, a Tumor volume ([1]; day 28, 40 mg/kg Q3d, four doses (positive control group 13)) of 1084.8 mm^3 and a Tumor volume ([1]; day 31, 40 mg/kg Q3d, four doses (positive control group 13)) of 1325.2 mm^3.

With `CNC(=O)c1cc(Oc2ccc(NC(=O)Nc3ccc(Cl)c(C(F)(F)F)c3)cc2)ccn1` [sorafenib] the “tumor size as compared to control” value [1] was “reduced tumor size”.

With “Control IgG: palivizumab, an antibody of the same isotype as DX-2240 [reference compound]” the “calculated tumor growth rate, After Avastin” value [1, 6] was 23.8 ± 8.6, the “calculated tumor growth rate, After Avastin” value [1, 7] was 33.3 ± 6.6 and the “calculated tumor growth rate, Before Avastin (Day 21)” value [1] was 28.3 ± 5.2. The “calculated tumor growth rate, Before Avastin (Day 10)” value [1] was 41.1 ± 9.0, the “# of stable tumor growths or tumor regressions” value [1, 8] was 1/8 and the “# of stable tumor growths or tumor regressions” value [1, 9] was 0/8. The Tumor volume [1, 10] was 106.9 mm^3, the Tumor volume [1, 11] was 164.7 mm^3 and the Tumor volume [1, 12] was 293.2 mm^3. For the same compound, the Tumor volume [1, 13] was 366.4 mm^3, the Tumor volume [1, 14] was 521.8 mm^3 and the Tumor volume [1, 15] was 907.5 mm^3. It also gave a Tumor volume [1, 16] of 1062.0 mm^3, a Tumor volume [1, 17] of 1354.0 mm^3 and a Tumor volume [1, 18] of 1669.1 mm^3. The mean tumor volume ([2]; day 1) was 107.6 mm^3, the mean tumor volume ([2]; day 4) was 180.1 mm^3 and the mean tumor volume ([2]; day 8) was 237.7 mm^3. The mean tumor volume ([2]; day 11) was 249.9 mm^3, the mean tumor volume ([2]; day 15) was 355.9 mm^3 and the mean tumor volume ([2]; day 18) was 300.0 mm^3. For the same compound, the “lectin staining, High intensity (3+)” value ([3]; Day 10) was 19242, the “lectin staining, Low intensity (1+)” value ([3]; Day 10) was 1214685 and the “lectin staining, Medium intensity (2+)” value ([3]; Day 10) was 3148400. For the same compound, the “lectin staining, High intensity (3+)” value ([3]; Day 20) was 7824, the “lectin staining, Low intensity (1+)” value ([3]; Day 20) was 222879 and the “lectin staining, Medium intensity (2+)” value ([3]; Day 20) was 272402. It also gave a mean tumor volume ([4]; day 1) of 94.9 mm^3, a mean tumor volume ([4]; day 5) of 125.7 mm^3 and a mean tumor volume ([4]; day 9) of 195.1 mm^3. The mean tumor volume ([4]; day 13) was 293.5 mm^3, the mean tumor volume ([4]; day 15) was 320.9 mm^3 and the mean tumor volume ([4]; day 19) was 400.7 mm^3. For the same compound, the mean tumor volume ([4]; day 23) was 417.8 mm^3, the mean tumor volume ([4]; day 26) was 487.6 mm^3 and the mean tumor volume ([4]; day 29) was 450.5 mm^3. For the same compound, the mean tumor volume ([4]; day 33) was 501.1 mm^3 and the mean tumor volume ([4]; day 36) was 529.3 mm^3.

For “DX-2240: Germlined F allotyped E3 antibody, Tie1 ectodomain-binding (SEQ ID NO:10-13)”, the “calculated tumor growth rate, After Avastin” value [1, 6] was 18.6 ± 8.0, the “calculated tumor growth rate, After Avastin” value [1, 7] was 12.2 ± 3.3 and the “calculated tumor growth rate, Before Avastin (Day 21)” value [1] was 23.1 ± 6.6. For the same compound, the “calculated tumor growth rate, Before Avastin (Day 10)” value [1] was 23.9 ± 4.9, the “# of stable tumor growths or tumor regressions” value [1, 8] was 2/8 and the “# of stable tumor growths or tumor regressions” value [1, 9] was 1/6. For the same compound, the “tumor size as compared to control” value [1] was “reduced tumor size”, the Tumor volume [1, 10] was 105.6 mm^3 and the Tumor volume [1, 11] was 139.9 mm^3. For the same compound, the Tumor volume [1, 12] was 223.1 mm^3, the Tumor volume [1, 13] was 331.6 mm^3 and the Tumor volume [1, 14] was 460.5 mm^3. It also gave a Tumor volume [1, 15] of 724.4 mm^3, a Tumor volume [1, 16] of 954.1 mm^3 and a Tumor volume [1, 17] of 1171.1 mm^3. For the same compound, the Tumor volume [1, 18] was 1351.4 mm^3, the mean tumor volume ([2]; day 1) was 107.7 mm^3 and the mean tumor volume ([2]; day 4) was 157.7 mm^3. The mean tumor volume ([2]; day 8) was 194.2 mm^3, the mean tumor volume ([2]; day 11) was 199.0 mm^3 and the mean tumor volume ([2]; day 15) was 308.7 mm^3. The mean tumor volume ([2]; day 18) was 289.1 mm^3, the “lectin staining of tumors as compared to control animals” value ([3]; DX-2240 20 mg/kg IP Q2D) was “less lectin staining” and the functional tumor vasculature ([3]; DX-2240-treated animals) was “less functional tumor vasculature”. For the same compound, the “lectin staining, High intensity (3+)” value ([3]; Day 10) was 92134, the “lectin staining, Low intensity (1+)” value ([3]; Day 10) was 909706 and the “lectin staining, Medium intensity (2+)” value ([3]; Day 10) was 3468512. For the same compound, the “lectin staining, High intensity (3+)” value ([3]; Day 20) was 5922, the “lectin staining, Low intensity (1+)” value ([3]; Day 20) was 122022 and the “lectin staining, Medium intensity (2+)” value ([3]; Day 20) was 205406. It also gave a mean tumor volume ([4]; day 1) of 94.6 mm^3, a mean tumor volume ([4]; day 5) of 162.6 mm^3 and a mean tumor volume ([4]; day 9) of 269.3 mm^3. It also gave a mean tumor volume ([4]; day 13) of 417.3 mm^3, a mean tumor volume ([4]; day 15) of 460.0 mm^3 and a mean tumor volume ([4]; day 19) of 553.9 mm^3. It also gave a mean tumor volume ([4]; day 23) of 644.4 mm^3, a mean tumor volume ([4]; day 26) of 707.1 mm^3 and a mean tumor volume ([4]; day 29) of 737.8 mm^3. For the same compound, the mean tumor volume ([4]; day 33) was 866.7 mm^3, the mean tumor volume ([4]; day 36) was 1008.3 mm^3 and the Tie1 tyrosine phosphorylation [5] was “induce”. For the same compound, the Tie complex formation [5] was “induce”, the “down modulation of Tie1 from the cell surface” value [5] was “induce” and the “Tie1/Tie2 heterodimers on the surface of cells expressing Tie1 and Tie2” value ([5]; e.g., endothelial cells) was “down-modulation”.
